Columns and labels:
wild-type EGFR = wild-type EGFR (Homo sapiens (Human), UniProt P00533); assay: In vitro EGFR kinase activity assay (Z'-Lyte); type: biochemical; details: EGFR WT; read-out: Inhibitory activity on EGFR kinase (IC50, nM) WT;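 note: Ten-point dose series from 5.1×10^−11 to 1.0×10^−6 mol/L, kinase reaction 1.5 h at room temperature, then 1 h development cleaving unphosphorylated peptide, phosphopeptide as 100% phosphorylation control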
Method: (§8) Inhibitory effects in vitro of the compounds provided in the present invention on EGFR kinase activity was tested as follows:
(§9) 10 concentration gradients, from 5.1×10^−11 mol/L to 1.0×10^−6 mol/L, were set for all of the compounds to be tested.
(§10) 10 μL of kinase reaction system comprised 2.5 μL of compound solution, 5 μL of Kinase/peptide mixture, and 2.5 μL of ATP solution. 5 μL of phosphopeptide solution was used in place of kinase/peptide mixture as 100% phosphorylation control. […] After thoroughly mixing the solution within the plate, the plate was incubated at room temperature for 1.5 hours. 5 μL of DevelopmentSolution was added into each well, and then the plate was incubated at room temperature for another 1 hour, and non-phosphorylated peptide was cleaved within this period. Finally, the reaction was quenched by adding 5 μL of Stop Reagent. The Plate was measured with EnVision Multilabel Reader (Perkin Elmer). Experimental data were calculated by using GraphPad Prism version 4.0. Each experiment was repeated more than three times.

[1] = test system: HCC827 (non-small cell lung cancer cells, EGFR del E746-A750); assay: Cell proliferation and growth inhibition analysis; type: cell-based; details: Homo sapiens, 72 hours, read-out: Inhibitory activity on cell proliferation (IC50, μM) HCC827
Method: (§1) Cell proliferation was evaluated by MTS assay. Cells were exposed to the process conditions for 72 hours, and the number of cells for each cell line used in the experiment was adjusted according to the absorbance value (absorbance value at 490 nm was 1.3-2.2). 6 concentration gradients (0.1 nM-10 μM) were set for the compounds to be tested, with six parallel controls for each concentration.
(§2) H1975, HCC827, A549, BT474, MCF-7, SK-BR-3 cells were cultured in the corresponding medium. Upon recovery, the cells were passaged at least two times and then used in experiments. Cells in Log phase were trypsinized and resuspended in the medium. H1975 (1000 cells per well), BT474 (1500 cells per well), MCF-7 (1500 cells per well), HCC827 (2000 cells per well), SK-BR-3 (2000 cells per well), A549 (2000 cells per well) were seeded into 96-well plates, the volume was 100 μL, and 6 rows and 7 columns were set. The plate was placed in an incubator at 37° C. of 5% carbon dioxide overnight. Compounds were dissolved in DMSO to obtain the concentration of […], and then gradually diluted to obtain the concentration of compound as […], 0.1 μM, 0.01 μM, 0.001 μM, 0.0001 μM. 2 μL of compound solution was added into 998 μL of medium, and the resulting mixture was thoroughly mixed. 100 μL of mixture was added into 96-well plate. […] After the cells were cultured for 68 hours, 20 μL of MTT (5 mg/mL) was added. After 4 hours, the supernatant was discarded and 150 μL of DMSO was added. The resulting system was shaken for 10 minutes, and the plate was read with Synergy HT (Bio TeK) (OD490). The data was calculated by GraphPad Prism version 4.0, and IC50 was obtained by non-linear regression model using dose-response curve.

[2] = test system: H1975 (non-small cell lung cancer cells, EGFR L858R/T790M); assay: Cell proliferation and growth inhibition analysis; type: cell-based; details: Homo sapiens, NCI-H1975, 72 hours, read-out: Inhibitory activity on cell proliferation (IC50, μM) H1975
Method: as §1, §2

BLK = BLK (Homo sapiens (Human), UniProt P51451); assay: BLK kinase activity assay (Caliper); type: biochemical; details: read-out: Inhibitory activity on kinase (IC50, nM) BLK
BLK, sequence (P51451 whole entry): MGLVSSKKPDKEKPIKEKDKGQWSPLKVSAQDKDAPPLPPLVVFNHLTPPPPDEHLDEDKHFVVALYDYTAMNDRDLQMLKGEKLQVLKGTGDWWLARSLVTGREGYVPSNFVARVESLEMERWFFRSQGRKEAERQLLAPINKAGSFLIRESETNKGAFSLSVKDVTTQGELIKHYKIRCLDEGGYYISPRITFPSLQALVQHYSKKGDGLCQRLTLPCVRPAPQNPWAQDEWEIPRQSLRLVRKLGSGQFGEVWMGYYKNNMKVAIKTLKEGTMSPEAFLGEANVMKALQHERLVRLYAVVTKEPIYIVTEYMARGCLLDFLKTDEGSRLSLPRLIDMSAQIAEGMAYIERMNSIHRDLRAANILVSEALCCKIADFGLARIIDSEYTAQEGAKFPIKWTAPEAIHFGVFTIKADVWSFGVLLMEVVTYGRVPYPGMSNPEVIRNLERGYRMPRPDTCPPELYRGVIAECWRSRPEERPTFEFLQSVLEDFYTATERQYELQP
Method: (§3) Preparation of 1× kinase matrix buffer and stop buffer.
(§4) Preparation of compound solution. The compound was dissolved in 100% DMSO to a concentration, which was 50 times of the final highest inhibiting-concentration. 100 μL of the compound solution as said above was transferred into wells of 96-well plate. The above compound solution was sequentially diluted to the final desired concentration. In two blank wells of same 96-well plate, 100 μL of 100% DMSO was added as no-compound and no-kinase control, and this plate was used as the original plate.
(§5) Preparation of intermediate plate. 10 μL of compound solution was transferred from the original plate to another 96-well plate as the intermediate plate; 90 μL of 1× kinase buffer was added into each well of the intermediate plate, and the intermediate plate was shaken for 10 min.
(§6) Preparation of assay plate. 5 μL of solution from each well of intermediate plate was added into a 384-well plate, and repeated controls were set.
(§7) Kinase reaction. 2.5× kinase solution and 2.5× peptide solution were prepared. 2.5× kinase solution was transferred into assay plate. Assay plate comprised 5 μL of the compound solution in 10% DMSO. 10 μL of 2.5× kinase solution was added in each well of 384-well assay plate. […] 2.5× peptide solution was added into each well. After incubated at 28° C. for an appropriate time, 25 μL of stop buffer was added to quench the reaction. Experimental data were collected in Caliper. Curve was fitted.

FLT3 = FLT3 (Homo sapiens (Human), UniProt P36888); assay: FLT3 kinase activity assay (Caliper); type: biochemical; details: read-out: Inhibitory activity on kinase (IC50, nM) FLT3
FLT3, sequence (P36888 27-993): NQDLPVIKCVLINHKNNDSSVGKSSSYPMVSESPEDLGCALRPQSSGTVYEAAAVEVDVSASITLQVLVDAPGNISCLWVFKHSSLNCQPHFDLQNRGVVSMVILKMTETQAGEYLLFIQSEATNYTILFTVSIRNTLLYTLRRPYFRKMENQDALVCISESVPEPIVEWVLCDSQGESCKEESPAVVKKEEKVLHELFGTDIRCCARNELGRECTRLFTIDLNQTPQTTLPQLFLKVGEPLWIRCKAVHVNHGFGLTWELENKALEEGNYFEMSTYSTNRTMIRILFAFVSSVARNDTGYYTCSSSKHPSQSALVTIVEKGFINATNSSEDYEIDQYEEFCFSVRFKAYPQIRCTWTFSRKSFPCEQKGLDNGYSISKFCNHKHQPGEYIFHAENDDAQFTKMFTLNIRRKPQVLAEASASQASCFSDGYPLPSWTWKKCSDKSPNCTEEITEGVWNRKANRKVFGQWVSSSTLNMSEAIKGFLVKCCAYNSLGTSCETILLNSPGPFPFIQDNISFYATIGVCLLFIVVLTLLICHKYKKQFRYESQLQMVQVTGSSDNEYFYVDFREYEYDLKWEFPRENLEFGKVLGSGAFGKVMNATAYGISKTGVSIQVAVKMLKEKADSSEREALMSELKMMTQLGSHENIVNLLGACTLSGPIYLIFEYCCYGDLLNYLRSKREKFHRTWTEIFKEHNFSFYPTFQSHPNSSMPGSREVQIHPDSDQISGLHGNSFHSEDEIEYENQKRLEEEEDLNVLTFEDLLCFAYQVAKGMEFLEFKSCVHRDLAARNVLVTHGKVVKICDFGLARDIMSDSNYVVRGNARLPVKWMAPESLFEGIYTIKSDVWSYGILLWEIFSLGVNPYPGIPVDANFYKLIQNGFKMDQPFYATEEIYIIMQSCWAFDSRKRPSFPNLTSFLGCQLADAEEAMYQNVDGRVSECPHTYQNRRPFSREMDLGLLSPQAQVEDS
Method: as §3, §4, §5, §6, §7

EGFR-L858R/T790M = EGFR-L858R/T790M (Homo sapiens (Human), UniProt P00533, L858R/T790M); assay: In vitro EGFR kinase activity assay (Z'-Lyte); type: biochemical; details: read-out: Inhibitory activity on EGFR kinase (IC50, nM) T790M/L858R;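 note: Cell-free kinase reaction with peptide substrate and ATP, 1.5 h at room temperature, development cleaving unphosphorylated peptide, 10-point dilution 0.051–1000 nM, phosphopeptide as 100% phosphorylation control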
EGFR-L858R/T790M, sequence (P00533 25-1210 T790M/L858R): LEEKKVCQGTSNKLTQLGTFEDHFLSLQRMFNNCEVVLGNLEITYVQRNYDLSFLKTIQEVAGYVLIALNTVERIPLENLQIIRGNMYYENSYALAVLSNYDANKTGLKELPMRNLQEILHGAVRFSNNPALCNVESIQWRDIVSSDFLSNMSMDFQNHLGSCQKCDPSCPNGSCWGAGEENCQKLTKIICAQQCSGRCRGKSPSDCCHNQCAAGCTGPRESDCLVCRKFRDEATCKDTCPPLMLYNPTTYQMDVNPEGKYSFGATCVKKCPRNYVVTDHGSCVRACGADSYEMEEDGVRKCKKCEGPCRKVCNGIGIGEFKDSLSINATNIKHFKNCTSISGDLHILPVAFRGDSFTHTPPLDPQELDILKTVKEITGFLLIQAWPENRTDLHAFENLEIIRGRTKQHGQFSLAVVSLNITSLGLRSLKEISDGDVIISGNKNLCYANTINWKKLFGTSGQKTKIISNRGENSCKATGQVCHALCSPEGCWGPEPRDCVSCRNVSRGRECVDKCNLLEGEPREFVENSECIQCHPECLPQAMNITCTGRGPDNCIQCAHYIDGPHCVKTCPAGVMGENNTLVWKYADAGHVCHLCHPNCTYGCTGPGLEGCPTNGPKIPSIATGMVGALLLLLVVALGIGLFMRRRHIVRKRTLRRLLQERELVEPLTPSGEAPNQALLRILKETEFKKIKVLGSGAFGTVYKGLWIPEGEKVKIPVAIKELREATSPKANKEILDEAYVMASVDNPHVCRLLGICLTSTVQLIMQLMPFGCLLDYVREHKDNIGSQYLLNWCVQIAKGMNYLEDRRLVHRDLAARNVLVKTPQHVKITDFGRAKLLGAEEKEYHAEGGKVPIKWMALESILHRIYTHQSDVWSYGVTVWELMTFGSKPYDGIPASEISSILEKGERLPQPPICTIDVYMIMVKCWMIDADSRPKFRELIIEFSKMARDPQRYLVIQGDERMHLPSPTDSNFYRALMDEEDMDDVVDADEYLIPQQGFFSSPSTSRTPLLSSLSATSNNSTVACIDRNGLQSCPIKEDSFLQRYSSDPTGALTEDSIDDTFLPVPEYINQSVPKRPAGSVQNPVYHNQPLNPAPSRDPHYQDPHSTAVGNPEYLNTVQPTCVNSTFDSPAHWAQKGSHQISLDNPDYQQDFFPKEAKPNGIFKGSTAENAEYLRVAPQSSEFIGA
Method: as §8, §9, §10

EGFR-L858R = EGFR-L858R (Homo sapiens (Human), UniProt P00533, L858R); assay: In vitro EGFR kinase activity assay (Z'-Lyte); type: biochemical; details: read-out: Inhibitory activity on EGFR kinase (IC50, nM) L858R;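 note: Cell-free kinase reaction with peptide substrate and ATP, 1.5 h at room temperature, then development step cleaving non-phosphorylated peptide, 10-point dilution series 0.051–1000 nM, phosphopeptide as 100% phosphorylation control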
EGFR-L858R, sequence (P00533 25-1210 L858R): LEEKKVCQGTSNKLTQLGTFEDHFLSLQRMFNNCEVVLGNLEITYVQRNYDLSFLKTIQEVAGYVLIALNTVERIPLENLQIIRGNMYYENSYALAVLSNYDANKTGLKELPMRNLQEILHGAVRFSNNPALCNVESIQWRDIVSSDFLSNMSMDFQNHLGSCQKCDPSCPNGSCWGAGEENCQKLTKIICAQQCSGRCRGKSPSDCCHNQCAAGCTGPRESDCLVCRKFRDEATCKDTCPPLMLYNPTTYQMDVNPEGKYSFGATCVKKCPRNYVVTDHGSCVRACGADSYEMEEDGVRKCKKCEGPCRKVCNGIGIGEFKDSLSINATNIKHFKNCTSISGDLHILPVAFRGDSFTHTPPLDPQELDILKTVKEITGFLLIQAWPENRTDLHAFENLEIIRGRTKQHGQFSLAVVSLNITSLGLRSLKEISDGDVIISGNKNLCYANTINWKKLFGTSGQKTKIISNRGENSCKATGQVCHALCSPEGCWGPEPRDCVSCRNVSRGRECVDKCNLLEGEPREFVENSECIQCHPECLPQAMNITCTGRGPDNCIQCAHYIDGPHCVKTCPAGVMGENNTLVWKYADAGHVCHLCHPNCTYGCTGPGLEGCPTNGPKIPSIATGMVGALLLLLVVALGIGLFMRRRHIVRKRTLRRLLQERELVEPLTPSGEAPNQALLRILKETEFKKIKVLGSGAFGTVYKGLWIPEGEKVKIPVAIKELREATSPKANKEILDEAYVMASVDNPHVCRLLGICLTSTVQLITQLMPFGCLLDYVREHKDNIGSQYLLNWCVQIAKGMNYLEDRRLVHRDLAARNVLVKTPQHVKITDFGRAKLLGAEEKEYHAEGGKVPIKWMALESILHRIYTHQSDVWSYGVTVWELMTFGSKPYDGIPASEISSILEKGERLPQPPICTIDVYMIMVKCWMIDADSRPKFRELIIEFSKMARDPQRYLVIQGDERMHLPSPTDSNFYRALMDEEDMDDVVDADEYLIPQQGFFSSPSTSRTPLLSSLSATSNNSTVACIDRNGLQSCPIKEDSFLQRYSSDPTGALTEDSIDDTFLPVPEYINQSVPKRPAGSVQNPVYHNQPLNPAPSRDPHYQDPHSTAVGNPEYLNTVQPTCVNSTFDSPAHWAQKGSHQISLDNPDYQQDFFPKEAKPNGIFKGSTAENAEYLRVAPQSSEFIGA
Method: as §8, §9, §10

wild-type EGFR, sequence (P00533 25-1210): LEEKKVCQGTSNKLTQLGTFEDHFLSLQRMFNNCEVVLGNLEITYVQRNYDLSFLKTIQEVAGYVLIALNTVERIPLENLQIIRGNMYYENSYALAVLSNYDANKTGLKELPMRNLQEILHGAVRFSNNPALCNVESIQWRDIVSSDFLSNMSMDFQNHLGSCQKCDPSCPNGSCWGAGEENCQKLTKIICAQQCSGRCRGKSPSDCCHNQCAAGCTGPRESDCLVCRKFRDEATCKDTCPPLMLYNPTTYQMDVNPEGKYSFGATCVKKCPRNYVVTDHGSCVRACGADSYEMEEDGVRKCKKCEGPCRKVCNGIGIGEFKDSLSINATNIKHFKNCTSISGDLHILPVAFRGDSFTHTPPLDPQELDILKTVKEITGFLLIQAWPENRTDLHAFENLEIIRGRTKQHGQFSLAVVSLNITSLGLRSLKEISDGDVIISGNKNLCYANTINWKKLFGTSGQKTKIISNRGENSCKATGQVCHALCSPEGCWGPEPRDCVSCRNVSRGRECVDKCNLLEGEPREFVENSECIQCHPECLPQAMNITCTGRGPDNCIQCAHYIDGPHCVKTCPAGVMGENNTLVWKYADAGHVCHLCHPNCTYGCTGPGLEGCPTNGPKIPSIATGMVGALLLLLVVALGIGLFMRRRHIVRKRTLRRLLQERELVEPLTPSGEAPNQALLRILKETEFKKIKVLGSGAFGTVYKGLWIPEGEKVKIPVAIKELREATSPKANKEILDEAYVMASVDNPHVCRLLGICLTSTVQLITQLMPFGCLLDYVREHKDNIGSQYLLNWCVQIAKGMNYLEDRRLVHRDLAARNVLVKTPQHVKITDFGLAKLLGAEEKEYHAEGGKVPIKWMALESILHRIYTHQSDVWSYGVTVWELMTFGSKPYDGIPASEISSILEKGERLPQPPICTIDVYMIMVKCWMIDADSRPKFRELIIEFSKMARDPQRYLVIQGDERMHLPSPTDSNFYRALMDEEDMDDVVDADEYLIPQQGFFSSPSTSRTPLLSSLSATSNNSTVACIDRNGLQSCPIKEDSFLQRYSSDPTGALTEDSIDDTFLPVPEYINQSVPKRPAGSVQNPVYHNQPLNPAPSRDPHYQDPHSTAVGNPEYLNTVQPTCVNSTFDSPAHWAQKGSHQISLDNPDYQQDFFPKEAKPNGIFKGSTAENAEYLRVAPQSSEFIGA

Row | SMILES | IC50 (wild-type EGFR) [nM] | IC50 [1] [µM] | IC50 [2] [µM] | IC50 (BLK) [nM] | IC50 (FLT3) [nM] | IC50 (EGFR-L858R/T790M) [nM] | IC50 (EGFR-L858R) [nM]
1 | C=CC(=O)Oc1ccc(-n2c(=O)cnc3cnc(Nc4ccc(OC)cc4)nc32)cc1 [Compound 011, 4-(2 (4-methoxyphenylamino)-7-oxo-8(7H)-pteridin-yl)phenyl acrylate] | 67 | 2.29 | 5.6 | 89 | 48 | 70.3 | 84.8
2 | CN(C)C/C=C/C(=O)Nc1ccc(-n2c(=O)cnc3cnc(Nc4ccccc4)nc32)cc1 [Compound 012, 4-(dimethylamino)-N-(4-(7-oxo-2-(phenylamino)-8(7H)-pteridin-yl)phenyl)-2-buteneamide] | 5980 | 4.42 | 18.9 | 6320 | 160 | 1920 | 5340
3 | CN(C)C/C=C/C(=O)Nc1cccc(-n2c(=O)cnc3cnc(Nc4ccccc4)nc32)c1 [Compound 013, 4-(dimethylamino)-N-(3-(7-oxo-2-(phenylamino)-8(7H)-pteridin-yl)phenyl)-2-buteneamide] |  |  |  | 171 | 3780 |  | 
4 | C=CC(=O)Nc1ccc(-n2c(=O)cnc3cnc(Nc4ccccc4)nc32)cc1 [Compound 014, N-(4-(7-oxo-2-(phenylamino)-8(7H)-pteridin-yl)phenyl) acrylamide] | 16.1 | 68.1 | 77.8 | 7480 | 129 | 113 | 26.4
5 | C=CC(=O)Nc1cccc(-n2c(=O)cnc3cnc(Nc4ccccc4)nc32)c1 [Compound 015, N-(3-(7-oxo-2-(phenylamino)-8(7H)-pteridin-yl)phenyl)acrylamide] |  |  | 0.437 |  | 1860 |  | 
6 | C=CC(=O)Nc1ccc(-n2c(=O)cnc3cnc(Nc4ccc(Cl)cc4)nc32)cc1 [Compound 016, N-(4-(2-(4-chlorophenylamino)-7-oxo-8(7H)-pteridin-yl)phenyl) acrylamide] | 7580 | 68.7 | 20.8 | > 10000 | 358 | 1490 | 116
7 | C=CC(=O)Nc1cccc(-n2c(=O)cnc3cnc(Nc4ccc(Cl)cc4)nc32)c1 [Compound 017, N-(3-(2-(4-chlorophenylamino)-7-oxo-8(7H)-pteridin-yl)phenyl) acrylamide] | 67 | 0.163 | 0.82 | 156 | 2820 | 70.3 | 84.8
8 | C=CC(=O)Nc1cccc(-n2c(=O)cnc3cnc(Nc4ccc(N5CCOCC5)cc4)nc32)c1 [Compound 018, N-(3-(2-(4-morpholinophenylamino)-7-oxo-8(7H)-pteridin-yl)phenyl) acrylamide] | 7.94 | 0.017 | 0.216 | 41 | 798 | 3.02 | 5.83
9 | C=CC(=O)Nc1ccc(-n2c(=O)cnc3cnc(Nc4ccc(N5CCN(C)CC5)cc4)nc32)cc1 [Compound 019, N-(4-(2-(4-(4-methyl-1-piperazinyl)-phenylamino)-7-oxo-8(7H)-pteridin-yl)phenyl) acrylamide] | 1260 | 0.676 | 8.87 | 796 | 51 | 738 | 6380
10 | C=CC(=O)Nc1cccc(-n2c(=O)cnc3cnc(Nc4ccc(N5CCCCC5)cc4)nc32)c1 [Compound 021, N-(3-(7-oxo-2-(4-(1-piperidinyl)phenylamino)-8(7H)-pteridinyl)phenyl) acrylamide] | 19.7 | 0.02 | 0.238 | 83 | 878 | 5.49 | 11.7
11 | C=CC(=O)Nc1cccc(-n2c(=O)cnc3cnc(Nc4ccc(N5CCCC5)cc4)nc32)c1 [Compound 022, N-(3-(7-oxo-2-(4-(1-pyrrolidinyl)phenylamino)-8(7H)-pteridin-yl)phenyl) acrylamide] | 23.3 | 0.073 | 0.531 | 98 | 1080 | 5.33 | 12.6
12 | C=CC(=O)Nc1cccc(-n2c(=O)cnc3cnc(Nc4ccc(N(CC)CC)cc4)nc32)c1 [Compound 023, N-(3-(2-(4-(diethylamino)phenylamino)-7-oxo-8(7H)-pteridin-yl)phenyl) acrylamide] | 23.1 | 0.031 | 0.477 | 83 | 1760 | 5.57 | 16.3
13 | C=CC(=O)Nc1cccc(-n2c(=O)cnc3cnc(Nc4ccc(NC(C)=O)cc4)nc32)c1 [Compound 024, N-(3-(2-(4-(acetylamino)-phenylamino)-7-oxo-8(7H)-pteridin-yl)phenyl) acrylamide] | 15.8 | 0.229 | 6.08 | 148 | 3550 | 5.12 | 13.4
14 | C=CC(=O)Nc1cccc(-n2c(=O)cnc3cnc(Nc4ccc(C(N)=O)cc4)nc32)c1 [Compound 025, 4-(8-(3-acrylamidephenyl)-7-oxo-7,8-dihydropteridinyl-2-amino)benzamide] | 12.7 | 0.604 | 7.3 | 76 | 1790 | 4.39 | 9.64
15 | C=CC(=O)Nc1cccc(-n2c(=O)c(C)nc3cnc(Nc4ccc(OC)cc4)nc32)c1 [Compound 026, N-(3-(2-(4-methoxyphenylamino)-6-methyl-7-oxo-8(7H)-pteridin-yl)phenyl) acrylamide] |  |  |  | 96 | 568 |  | 
16 | C=CC(=O)Nc1cccc(Nc2ncc3ncc(=O)n(-c4ccc(OC)cc4)c3n2)c1 [Compound 027, N-(3-(8-(4-methoxyphenyl)-7-oxo-7,8-dihydro-pteridin-2-amino)phenyl) acrylamide] | 2000 | 0.408 | 3.05 | 5660 | 119 | 1200 | 1710
17 | COc1ccc(-n2c(=O)cnc3cnc(Nc4cccc(N)c4)nc32)cc1 [Compound 028, 2-(3-aminophenylamino)-8-(4-methoxyphenyl)-7(8H)-pteridin-one] | 10600 | 15.9 | 82.8 | 7950 | 34 | 3530 | 18900
18 | C=CC(=O)Nc1ccc(Nc2ncc3ncc(=O)n(-c4ccc(OC)cc4)c3n2)cc1 [Compound 029, N-(4-(8-(4-methoxyphenyl)-7-oxo-7,8-dihydro-pteridin-2-amino)phenyl) acrylamide] | > 10000 | 0.543 | 0.953 | > 10000 | 100 | > 10000 | 1320
19 | C=CC(=O)Nc1cccc(Oc2nc(Nc3ccc(N4CCN(C)CC4)cc3OC)ncc2Cl)c1 [WZ4002, reference compound] |  | 0.014 | 0.039 |  |  |  | 

From patent publication US9670213B2, “Pteridine ketone derivative and applications thereof as EGFR, BLK, and FLT3 inhibitor” (EAST CHINA UNIVERSITY OF SCIENCE AND TECHNOLOGY, priority 2012, dated 2017)
